From paper PMC7906330 (PLoS ONE, 2021)

Tests used:
[1] = pH 7
[2] = test system: trypsin; test: in vitro; details: isolated enzyme trypsin, pH 8.5

SMILES	α-helical structure / structural stability by CD [1]	half-life [2]
CC[C@H](C)[C@H](NC(=O)[C@H](CC(C)C)NC(=O)[C@H](Cc1ccccc1)NC(=O)[C@H](CCC(N)=O)NC(=O)[C@H](CC(C)C)NC(=O)[C@H](CCCCN)NC(=O)CNC(=O)[C@H](Cc1ccc(O)cc1)NC(=O)[C@@H]1CCCN1C(=O)[C@@H](NC(=O)[C@@H]1CCCN1C(=O)[C@H](Cc1ccc(O)cc1)NC(=O)CNC(=O)[C@H](CCCCN)NC(=O)[C@H](Cc1c[nH]c2ccccc12)NC(=O)[C@@H]1CCCN1C(=O)CN)[C@@H](C)CC)C(=O)N[C@@H](CCCCN)C(=O)N[C@@H](CCCCN)C(=O)N[C@@H](CC(C)C)C(=O)N[C@@H](CCCCN)C(=O)N[C@@H](CCC(N)=O)C(=O)N[C@@H](CC(C)C)C(=O)N[C@@H](CCCCN)C(=O)N[C@H](C(N)=O)C(C)C [Peptide M49dN]	no α-helical structure	5 ± 0.3 min
CC[C@H](C)[C@H](NC(=O)[C@H](CC(C)C)NC(=O)[C@H](Cc1ccccc1)NC(=O)[C@H](CCC(N)=O)NC(=O)[C@H](CC(C)C)NC(=O)[C@H](CCCCN)NC(=O)CNC(=O)[C@H](Cc1ccc(O)cc1)NC(=O)[C@@H]1CCCN1C(=O)[C@@H](NC(=O)[C@@H]1CCCN1C(=O)[C@H](Cc1ccc(O)cc1)NC(=O)CNC(=O)[C@H](CCCCN)NC(=O)[C@H](Cc1c[nH]c2ccccc12)NC(=O)[C@@H]1CCCN1C(=O)CNC(=O)[C@H](CCC(=O)O)NC(=O)[C@H](CC(C)C)NC(=O)[C@H](C)NC(=O)[C@H](C)NC(=O)[C@H](CC(C)C)NC(=O)[C@H](CCC(=O)O)NC(=O)[C@H](C)NC(=O)[C@H](CCC(=O)O)NC(=O)[C@H](CC(C)C)NC(=O)[C@H](C)NC(=O)[C@H](C)NC(=O)[C@H](CC(C)C)NC(=O)[C@H](CCC(=O)O)NC(=O)[C@H](C)N)[C@@H](C)CC)C(=O)N[C@@H](CCCCN)C(=O)N[C@@H](CCCCN)C(=O)N[C@@H](CC(C)C)C(=O)N[C@@H](CCCCN)C(=O)N[C@@H](CCC(N)=O)C(=O)N[C@@H](CC(C)C)C(=O)N[C@@H](CCCCN)C(=O)N[C@H](C(N)=O)C(C)C [Peptide M49dS]	mostly denatured at 80 °C	39 ± 2 min
